In the experiment the target is T1, Zinc finger protein mex-5 (Caenorhabditis elegans, UniProt Q9XUB2).
T1 sequence (Q9XUB2 whole entry): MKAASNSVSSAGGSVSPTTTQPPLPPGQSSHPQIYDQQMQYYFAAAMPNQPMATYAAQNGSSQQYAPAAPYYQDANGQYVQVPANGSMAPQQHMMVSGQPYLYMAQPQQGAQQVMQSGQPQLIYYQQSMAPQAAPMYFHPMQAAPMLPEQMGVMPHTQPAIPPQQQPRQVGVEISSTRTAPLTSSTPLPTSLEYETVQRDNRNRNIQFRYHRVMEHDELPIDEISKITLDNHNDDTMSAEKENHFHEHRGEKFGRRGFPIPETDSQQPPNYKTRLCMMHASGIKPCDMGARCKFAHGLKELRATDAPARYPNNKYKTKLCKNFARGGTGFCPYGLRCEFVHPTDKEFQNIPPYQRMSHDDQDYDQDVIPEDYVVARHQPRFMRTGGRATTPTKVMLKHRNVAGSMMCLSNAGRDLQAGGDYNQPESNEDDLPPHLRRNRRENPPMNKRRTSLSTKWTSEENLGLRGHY
Description: potency of MEX-5 RNA-binding blockers – biochemical, C. elegans, fluorescence polarization, dose response (AID 1960). Background: In fluorescence polarisation assays a small probe gives low polarisation when free and higher when bound to something large.

In general, EC50 refers to the concentration needed to bring the measured effect to its halfway point. Read a low EC50 as a more potent agent.

Where a name gives a salt, the structure may show the parent alone. Bounds are passed on as bounds.

The molecule `COc1cc(CN=Nc2ccc([N+](=O)[O-])cc2)ccc1OCC(=O)Nc1ccc(C)c(C)c1` [MLS000537060] registered an EC50 of 234 µM. Consider `Cc1ccc(C(=O)C2C(=O)C(=O)N(Cc3ccco3)C2c2ccc(N(C)C)cc2)o1` (stereo unspecified) [2-[4-(dimethylamino)phenyl]-1-(2-furanylmethyl)-4-hydroxy-3-[(5-methyl-2-furanyl)-oxomethyl]-2H-pyrrol-5-one], for which the EC50 was more than 300 µM. The same measure for `CCCN1CCC2=C(C#N)C(=N)C(C#N)(C#N)C(c3cc(OC)ccc3OC)C2C1` (stereo unspecified) [6-Amino-8-(2,5-dimethoxy-phenyl)-2-propyl-2,3,8,8a-tetrahydro-1H-isoquinoline-5,7,7-tricarbonitrile]: 25.5 µM. Molecule `COc1ccc(C2C(C(=O)c3ccco3)C(=O)C(=O)N2c2nnc(C)s2)cc1OC` (stereo unspecified) [2-(3,4-dimethoxyphenyl)-3-(furan-2-carbonyl)-4-hydroxy-1-(5-methyl-1,3,4-thiadiazol-2-yl)-2H-pyrrol-5-one] gave an EC50 of 297 µM. The result for `COc1ccc(C2C(C(=O)c3cccs3)C(=O)C(=O)N2c2nnc(C)s2)cc1OC` (stereo unspecified) [2-(3,4-dimethoxyphenyl)-1-(5-methyl-1,3,4-thiadiazol-2-yl)-4-oxidanyl-3-thiophen-2-ylcarbonyl-2H-pyrrol-5-one] reads 5.19 µM; that for `Cc1cc(C)cc(N2C(=O)NC(=O)C(=Cc3cccn3-c3ccc(Cl)cc3)C2=O)c1` [MLS000545741], 136 µM; that for `O=C1NC(=O)N(CCc2ccccc2)C(=O)C1=CNNC(=O)c1ccccc1` [SMR000433912], 150 µM.

`CN(C)c1ccc(O)c2c1CC1CC3C(N(C)C)C(=O)C(C(N)=O)C(=O)[C@@]3(O)C(=O)C1C2=O` (stereo partly drawn) [(2E,12aS)-2-[azanyl(oxidanyl)methylidene]-4,7-bis(dimethylamino)-10,11,12a-tris(oxidanyl)-4a,5,5a,6-tetrahydro-4H-tetracene-1,3,12-trione;hydrochloride] had an EC50 of 37 µM. Consider `Cc1[nH]n(C(N)=S)c(=O)c1N=Nc1c(Cl)cc([N+](=O)[O-])cc1Cl` [SMR000514008], for which the EC50 was 85.9 µM. The same measure for `Cc1ccc(NNC2=Nc3ccccc3C2=O)cc1` [2-[(4-methylphenyl)hydrazo]-3-indolone]: 25.7 µM. Consider `Cc1ccc(N/N=C2/C(=O)Nc3ccc(F)cc32)cc1` [5-fluoro-3-[2-(4-methylphenyl)hydrazono]indolin-2-one], for which the EC50 is more than 300 µM.

For `Cc1ccc(-c2c(CCC(C)N=O)oc3ccc(Cl)cc23)o1` (stereo unspecified) [4-[5-chloro-3-(5-methyl-2-furanyl)-2-benzofuranyl]-2-butanone oxime], the EC50 was more than 300 µM.

Molecule `COc1ccc(C2C(C(=O)c3ccco3)C(=O)C(=O)N2c2nnc(C)s2)cc1` (stereo unspecified) [3-(furan-2-carbonyl)-4-hydroxy-2-(4-methoxyphenyl)-1-(5-methyl-1,3,4-thiadiazol-2-yl)-2H-pyrrol-5-one] had an EC50 of 216 µM. The result for `C[C@@H]1O[C@@H](O[C@@H]2[C@@H](O)[C@H](OCCc3ccc(O)c(O)c3)O[C@H](CO)[C@H]2OC(=O)/C=C/c2ccc(O)c(O)c2)[C@H](O)[C@H](O)[C@H]1O` [((2R,3R,4R,5R,6R)-6-(3,4-dihydroxyphenethoxy)-5-hydroxy-2-(hydroxymethyl)-4-((2S,3R,4R,5R,6S)-3,4,5-trihydroxy-6-methyltetrahydro-2H-pyran-2-yloxy)tetrahydro-2H-pyran-3-yl) 3-(3,4-dihydroxyphenyl)acrylate] reads 9.83 µM; that for `O=C(Cc1nc2cc(Cl)ccc2oc1=O)c1ccco1` [(3Z)-6-chloranyl-3-[2-(furan-2-yl)-2-oxidanylidene-ethylidene]-4H-1,4-benzoxazin-2-one], more than 300 µM. `O=C1Nc2ccccc2/C1=N/NC(=S)Nc1ccc(O)cc1` [1-(4-hydroxyphenyl)-3-[(2-oxidanylideneindol-3-yl)amino]thiourea] showed an EC50 of 3.98 µM. This lies in the single-digit micromolar range. Regarding `COc1cc(C2c3c(-c4cccnc4)n[nH]c3OC(=N)C2C#N)cc(Br)c1O` (stereo unspecified), the EC50 is more than 300 µM.

`COc1cccc(C2C3=C(CC(c4ccco4)CC3=O)OC(=N)C2C#N)c1OCc1ccc(F)cc1` (stereo unspecified) [SMR000021029]: the EC50 was more than 300 µM. The result for `Cc1cc(O)c(C(C)C)cc1Nc1csc(=O)[nH]1` [SMR000034713] reads 34.6 µM; that for `O=C1Nc2ccccc2C1=NNc1ccccc1` [3-(phenylhydrazo)-2-indolone], 18.3 µM; that for `Cc1ccc2c(c1)=C(NNc1ccccc1C)C(=O)N=2`, more than 300 µM.

`C=c1[nH]n(-c2cccc(C(=O)O)c2)c(=O)c1=CC=Cc1ccco1` [SMR000113614] came in with an EC50 of 23.7 µM. `c1ccc(C2=NNC(c3ccccn3)N=N2)nc1` (stereo unspecified) [SMR000549436]: the EC50 is 22.4 µM. The result for `COc1ccc(C2CC(=O)C(=CNCCCO)C(=O)C2)cc1` (stereo unspecified) [2-[(3-hydroxypropylamino)methylidene]-5-(4-methoxyphenyl)cyclohexane-1,3-dione] reads 37.9 µM; that for `COc1cc2c(cc1C1C3=C(CC(C)(C)CC3=O)OC(=N)C1C#N)OCO2` (stereo unspecified) [MLS001208406], more than 300 µM.

In the case of `COc1ccc(N2C(=O)C(=Nc3ccccc3O)C(Cl)C2=O)cc1` (stereo unspecified) [3-Chloro-4-(2-hydroxy-phenylamino)-1-(4-methoxy-phenyl)-pyrrole-2,5-dione], a half-maximal effect (EC50) was put at 24.5 µM. Turning to `Cc1nnc(N2C(=O)C(=O)C(C(=O)c3ccco3)C2c2cccc3ccccc23)s1` (stereo unspecified) [3-(furan-2-carbonyl)-4-hydroxy-1-(5-methyl-1,3,4-thiadiazol-2-yl)-2-naphthalen-1-yl-2H-pyrrol-5-one], the EC50 is more than 300 µM. `O=[N+]([O-])c1cc([CH+][N-]n2c(O)csc2=S)ccc1Cl` [3-[(4-chloranyl-3-nitro-phenyl)methylideneamino]-2-sulfanylidene-1,3-thiazolidin-4-one] yielded an EC50 of 15.7 µM.

The molecule `N#CC1C(=N)Oc2cc(O)c(Cl)cc2C1c1ccccc1F` (stereo unspecified) [2-Amino-6-chloro-4-(2-fluoro-phenyl)-7-hydroxy-4H-chromene-3-carbonitrile] came in with an EC50 of more than 300 µM. With `COc1ccc(OC)c(N2C(=O)NC(=O)C(=Cc3c[nH]c4ccccc34)C2=O)c1` [(5E)-1-(2,5-dimethoxyphenyl)-5-(1H-indol-3-ylmethylene)pyrimidine-2,4,6(1H,3H,5H)-trione], the EC50 was more than 300 µM. The molecule `C=CCN1C(=O)NC(=O)C(=CCC=Nc2ccccc2)C1=O` [(5Z)-5-[(E)-3-phenylazanylprop-2-enylidene]-1-prop-2-enyl-1,3-diazinane-2,4,6-trione] had an EC50 of more than 300 µM. The molecule `Cc1[nH]n(C(N)=S)c(=O)c1N=Nc1ccc(S(N)(=O)=O)cc1` [3-methyl-5-oxidanylidene-4-[(4-sulfamoylphenyl)diazenyl]-4H-pyrazole-1-carbothioamide] showed an EC50 of 8.86 µM. The result for `O=C1C(=Nc2ccccc2O)C(Cl)C(=O)N1c1ccccc1` (stereo unspecified) [3-Chloro-4-(2-hydroxy-phenylamino)-1-phenyl-pyrrole-2,5-dione] reads 73 µM; that for `COC1=CC([N+](=O)[O-])=CC(/C=N/NC(=O)CC#N)C1=O` (stereo unspecified), more than 300 µM.

The molecule `C[C@H]1c2cccc(O)c2C(=O)C2C(=O)[C@]3(O)C(=O)C(C(N)=O)C(=O)[C@@H](N(C)C)[C@@H]3[C@@H](O)[C@@H]21` (stereo partly specified) showed an EC50 of 37.9 µM. The result for `N#CC1C(=N)OC2=C(C(=O)CCC2)[C@]12C(=O)N(CC(N)=O)c1ccccc12` (stereo partly drawn) [2-[(4R)-2-amino-3-cyano-2',5-diketo-spiro[7,8-dihydro-6H-chromene-4,3'-indoline]-1'-yl]acetamide] reads more than 300 µM.

The values are drawn from BindingDB's records for doi:10.7270/Q2D798VP (Broad Institute, 2009).
